Data reported in patent EP4813463A2, “TYK2 INHIBITORS AND COMPOSITIONS AND METHODS THEREOF” (Lynk Pharmaceuticals Co. Ltd., priority 2023, dated 2024).
Where two headings read alike, the source gives them in different places.

Assays:
JAK1-JH2 domain = target: T1, JAK1-JH2 domain (Homo sapiens, UniProt P23458); experiment: Binding activity test for JH2 domain of JAK1 (Tb-antibody/tracer FRET); conditions: JH2 domain enzyme; 60 min at 25°C, then 4°C overnight; read-out: JAK1 JH2 Binding IC50
T1 construct: JAK1-JH2 domain or TYK2-JH2 domain enzyme in assay buffer
T1 sequence (P23458 583-855 limits assumed): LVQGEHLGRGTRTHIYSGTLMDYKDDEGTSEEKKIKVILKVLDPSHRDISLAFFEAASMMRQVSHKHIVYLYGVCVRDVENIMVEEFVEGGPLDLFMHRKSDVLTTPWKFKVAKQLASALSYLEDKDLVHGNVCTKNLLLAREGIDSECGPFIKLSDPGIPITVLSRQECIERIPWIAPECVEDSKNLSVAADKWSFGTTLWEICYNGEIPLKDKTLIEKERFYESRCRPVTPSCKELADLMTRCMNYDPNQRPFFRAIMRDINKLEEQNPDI
How it was run: (§1)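 IC50 values (nM) come from TR-FRET readings taken after a 25°C incubation followed by overnight at 4°C. Each well held JH2 domain protein, Tb-antibody, tracer and test compound titrated in 11 threefold steps, with DMSO high and low controls.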

[1] = system: Ba/F3-FL-TYK2-P760L cells; experiment: Anti-proliferative assay in engineered Ba/F3 cells (Cell-Titer Glo, 72 h); assay type: cell-based; conditions: 72 h compound treatment, concentration that causes 50% growth inhibition, read-out: Baf3-FL-T2P760L
How it was run: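 IC50 from luminescent ATP viability after 72 h compound exposure (37 °C, 5% CO2), % inhibition normalised to DMSO-treated cells minus medium blank. IL-3-free Ba/F3-FL-TYK2-P760L (Tel-JAK fusion) cells in 10% FBS RPMI-1640 received 9 three-fold doses, top 20 µM, 0.1% DMSO.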

[2] = Microsomal metabolic stability assay; assay type: in vitro ADME; conditions: human, liver microsomes, pH 7.4, 0.5 mg/mL microsomal protein, 1 µM test article, 2 mM NADPH; for microsomal CLint at 1 µM: read-out: Human LM Clint; for half-life at 1 µM: read-out: Human LM T1/2
Experimental: Microsomes were pre-incubated with test compound or control compounds for 5 min at 37°C in 100 mM potassium phosphate buffer, pH 7.4, 1.0 mM EDTA. The reaction was initiated by addition of 15 µL of the NADPH regenerating system to 30 µL of each incubation mixture per time point. The final incubation condition was composed of 0.5 mg/mL microsomal protein, 1 µM test article/positive control, 2 mM NADPH. The 0-minute samples were prepared by addition of a 30 µL aliquot of each incubation mixture to 135 µL quench reagent to precipitate proteins. And then a 15 µL aliquot of the NADPH regenerating system was added. At 5, 15, 30 and 45 minutes, the reaction will be stopped by the addition of cold acetonitrile solution containing internal standard. The samples taken at all time points were centrifuged at 5000×g for 15 minutes. 50 µL of supernatant are taken into 96-well assay plates pre-added with 50 µL ultrapure water, and then analyzed by LC/MS/MS.
Concentrations of test articles, control compounds in the samples were determined by using LC/MS/MS method. Plotting of the chromatograms and peak area integrations are carried out by Analyst (AB Sciex).
In the determination of the in vitro elimination constant (ke) of the control compounds, the analyte/internal standard peak area ratios will be converted to percentage remaining (%Remaining) with the following equation: %Remaining = (Peak area ratio of analyte to IS at each time point)/(Peak area ratio of analyte to IS at t = 0) × 100% [formula]
The CLint of microsomes was calculated using the formula: CLint (mic)=0.693/T1/2 /mg microsome protein per mL. The slope was measured by the natural logarithm of the percentage of the residual compound and time, T1/2 was calculated according to the following formula. T = (0.693)/(−slope) [formula]

TYK2-JH2 domain = target: T2, TYK2-JH2 domain (Homo sapiens, UniProt P29597); experiment: Binding activity test for JH2 domain of TYK2 (Tb-antibody/tracer FRET); conditions: for IC50: JH2 domain enzyme, 60 min at 25°C, then 4°C overnight, read-out: TYK2 JH2 Binding IC50; for JAK1/TYK2 selectivity: ratio of JAK1 JH2 to TYK2 JH2 binding IC50
T2 construct: JAK1-JH2 domain or TYK2-JH2 domain enzyme in assay buffer
T2 sequence (P29597 589-875 limits assumed): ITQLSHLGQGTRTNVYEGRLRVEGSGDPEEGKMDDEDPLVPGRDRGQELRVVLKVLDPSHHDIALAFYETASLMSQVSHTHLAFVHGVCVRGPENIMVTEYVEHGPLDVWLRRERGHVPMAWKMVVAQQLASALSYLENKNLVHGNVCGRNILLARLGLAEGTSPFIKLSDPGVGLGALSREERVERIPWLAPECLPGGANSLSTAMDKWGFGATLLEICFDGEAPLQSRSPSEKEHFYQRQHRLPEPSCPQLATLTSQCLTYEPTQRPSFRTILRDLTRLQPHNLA
How it was run: as §1

pSTAT1 = experiment: Phosphorylation inhibition of STAT in human whole blood (IFN-alpha stimulated, flow cytometry); assay type: cell-based; conditions: T-cell, 20 min, IFN-alpha stimulation 20 mins, CD3 T cells, read-out: pSTAT1 inhibition in hWB (IC50)
Experimental: The inhibitory potential of test articles in human whole blood assay was evaluated by the method of flow cytometry.
IFN-alpha will activate JAK1 and TYK2 kinase in T cells by binding to IFN receptors, and then lead to phosphorylation of STAT1 and STAT2. The phosphorylated STAT1 enter nuclear and promote transcription and expression of IFN-gamma. To evaluate the efficacy of TYK2i in T cells, freshly collected human whole blood will be stimulated with certain unit of human IFN-alpha (Universal Type I IFN(1MU), R&D, 11200-2) for 20 mins in incubator. After stimulation, fix cells with Phosflow™ Fix Buffer I (BD, 557870), and then collect fixed cells by centrifugation (500 g, 8min). Wash cells once with pre-cooled PBS, and then permeabilize cells with cold Perm Buffer III buffer (BD, 558050) for 45 mins on ice. Collect cells by centrifugation (600 g, 8min) and washed twice with cold PBS. Stain cells with anti-human CD3(FITC Mouse Anti-Human CD3, BD, 555332) and anti-pSTAT1_Y701(Alexa Fluor 647 Mouse Anti-Stat1 (pY701), BD, 612597) antibodies. Detect pSTAT1 by flow cytometry (CytoFlex S) and analyze data with FlowJo and GraphPad Prism 8 software. IC50 values of test articles were determined using 4- parameter logistic equation.

Row | SMILES | IC50 (JAK1-JH2 domain) | IC50 ([1]; Mus musculus, BaF3, 72 h) | microsomal CLint at 1 µM [2] | half-life at 1 µM [2] | IC50 (TYK2-JH2 domain) | JAK1/TYK2 selectivity (TYK2-JH2 domain) | IC50 [1] | IC50 (pSTAT1)
1 | CCn1nc(Nc2cc(NC(=O)C3CC3)ncc2C(=O)OC)c2c(OC)c(C(OC)C(F)(F)F)ccc21 (single isomer, unassigned) [Example 66B, Methyl (S*)-6-(cyclopropanecarboxamido)-4-((1-ethyl-4-methoxy-5-(2,2,2-trifluoro-1-methoxyethyl)-1H-indazol-3-yl)amino)nicotinate] | 90.7 nM | 12.5 nM | 14.2 µL/min/mg | 1.62 h | 0.13 nM | 719.87 | – | –
2 | [2H]C([2H])([2H])NC(=O)c1cnc(NC(=O)C2CC2)cc1Nc1nn(CC)c2ccc(C(O)C(F)(F)F)c(OC)c12 (single isomer, unassigned) [Example 71A, (S*)-6-(cyclopropanecarboxamido)-4-((1-ethyl-4-methoxy-5-(2,2,2-trifluoro-1-hydroxyethyl)-1H-indazol-3-yl)amino)-N-(methyl-d3)nicotinamide] | 7.26 nM | – | – | – | 0.14 nM | 51.84 | 0.412 nM | 54.9 nM
3 | [2H]C([2H])([2H])NC(=O)c1cnc(NC(=O)C2CC2)nc1Nc1cnn2ccc(Cl)c(OC)c12 [Example 4, 4-((5-Chloro-4-methoxypyrazolo[1,5-a]pyridin-3-yl)amino)-2-(cyclopropanecarboxamido)-N-(methyl-d3)pyrimidine-5-carboxamide] | 15.3 nM | 38.9 nM | – | – | 0.164 nM | 93.5 | – | 312 nM
4 | [2H]C([2H])([2H])NC(=O)c1cnc(NC(=O)[C@@H]2C[C@@H]2F)cc1Nc1cnn2ccc(COC)c(OC)c12 [Example 17, 6-((1S,2S)-2-fluorocyclopropane-1-carboxamido)-4-((4-methoxy-5-(methoxymethyl)pyrazolo[1,5-a]pyridin-3-yl)amino)-N-(methyl-d3)nicotinamide] | 12.7 nM | 84.3 nM | 12.3 µL/min/mg | 1.87 h | 0.102 nM | 125.0 | – | –
5 | [2H]C([2H])([2H])NC(=O)c1cnc(NC(=O)C2CC2)cc1Nc1cnn2cnc(OC)c(OC)c12 [Example 35, 6-(Cyclopropanecarboxamido)-4-((4,5-dimethoxypyrazolo[1,5-c]pyrimidin-3-yl)amino)-N-(methyl-d3)nicotinamide] | 92.3 nM | 2340 nM | 5.72 µL/min/mg | 4.04 h | 8.27 nM | 11.2 | – | –
6 | [2H]C([2H])([2H])NC(=O)c1cnc(NC(=O)C2CC2)cc1Nc1cnn2cnc(C(C)C(F)(F)F)c(OC)c12 (stereo not shown) [Example 37, 6-(Cyclopropanecarboxamido)-4-((4-methoxy-5-(1,1,1-trifluoropropan-2-yl)pyrazolo[1,5-c]pyrimidin-3-yl)amino)-N-(methyl-d3)nicotinamide] | 111 nM | 768 nM | 12.3 µL/min/mg | 1.88 h | 1.65 nM | 67.1 | – | –
7 | COC(=O)c1cnc(NC(=O)C2CC2)cc1Nc1nn(C)c2ccc(C(O)C(F)(F)F)c(OC)c12 (stereo not shown) [Example 48, Methyl 6-(cyclopropanecarboxamido)-4-((4-methoxy-1-methyl-5-(2,2,2-trifluoro-1-hydroxyethyl)-1H-indazol-3-yl)amino)nicotinate] | 33.6 nM | 2.19 nM | 19.3 µL/min/mg | 1.2 h | 0.166 nM | 202.69 | – | –
8 | [2H]C([2H])([2H])O[C@@H](c1ccc2c(c(Nc3cc(NC(=O)C4CC4)ncc3C(=O)OC)nn2C([2H])([2H])[2H])c1OC)C(F)(F)F [Example 53B, Methyl (S)-6-(cyclopropanecarboxamido)-4-((4-methoxy-1-(methyl-d3)-5-(2,2,2-trifluoro-1-(methoxy-d3)ethyl)-1H-indazol-3-yl)amino)nicotinate] | – | 2.84 nM | 13.2 µL/min/mg | 1.75 h | 0.15 nM | – | – | –
9 | COC(=O)c1cnc(NC(=O)C2CC2)cc1Nc1nsc2ccc(C(OC)C(F)(F)F)c(OC)c12 (stereo not shown) [Example 67, Methyl 6-(cyclopropanecarboxamido)-4-((4-methoxy-5-(2,2,2-trifluoro-1-methoxyethyl)benzo[d]isothiazol-3-yl)amino)nicotinate] | – | 2.5 nM | 18.3 µL/min/mg | 1.26 h | 0.15 nM | – | – | –
10 | [2H]C([2H])([2H])OC(c1ccc2c(c(Nc3cc(NC(=O)C4CC4)ncc3C(=O)OC)nn2C([2H])([2H])[2H])c1OC)C(F)F (stereo not shown) [Example 102, Methyl 6-(cyclopropanecarboxamido)-4-((5-(2,2-difluoro-1-(methoxy-d3)ethyl)-4-methoxy-1-(methyl-d3)-1H-indazol-3-yl)amino)nicotinate] | 18.5 nM | 3.9 nM | 29.8 µL/min/mg | 0.776 h | 0.19 nM | 99.81 | – | –
11 | COC(=O)c1cnc(NC(=O)C2CC2)cc1Nc1nc2ccc(N3CC(OC)C3)cn2n1 [Example 107, Methyl 6-(cyclopropanecarbonylamino)-4-[[6-(3-methoxyazetidin-1-yl)-[1,2,4]triazolo[1,5-a]pyridin-2-yl]amino]pyridine-3-carboxylate] | – | 27.8 nM | – | – | 0.25 nM | – | – | 401 nM
12 | [2H]C([2H])([2H])CC(=O)c1cnc(NC(=O)C2CC2)cc1Nc1cnn2ccc([C@H](O)C(F)(F)F)c(OC)c12 [Example 141, (S)-N-(4-((4-methoxy-5-(2,2,2-trifluoro-1-hydroxyethyl)pyrazolo[1,5-a]pyridin-3-yl)amino)-5-(propanoyl-3,3,3-d3)pyridin-2-yl)cyclopropanecarboxamide] | – | 11.3 nM | – | – | 0.075 nM | – | – | 177 nM
13 | [2H]C([2H])(C)C(=O)c1cnc(NC(=O)C2CC2)cc1Nc1nn(C)c2ccc(C(O)C(F)(F)F)c(OC)c12 (stereo not shown) [Example 156, N-(4-((4-methoxy-1-methyl-5-(2,2,2-trifluoro-1-hydroxyethyl)-1H-indazol-3-yl)amino)-5-(propanoyl-2,2-d2)pyridin-2-yl)cyclopropanecarboxamide] | 14.2 nM | 1.76 nM | 26.2 µL/min/mg | 0.881 h | 0.163 nM | 86.87 | – | –
14 | [2H]C([2H])([2H])OC(c1ccc2c(c(Nc3cc(NC(=O)C4CC4)ncc3C(=O)OC)nn2CCOC)c1OC)C(F)(F)F (stereo not shown) [Example 157, Methyl 6-(cyclopropanecarboxamido)-4-((4-methoxy-1-(2-methoxyethyl)-5-(2,2,2-trifluoro-1-(methoxy-d3)ethyl)-1H-indazol-3-yl)amino)nicotinate] | – | – | 25.8 µL/min/mg | 0.897 h | 0.15 nM | – | 9.21 nM | –
